# From PMC5813016 (Nature Communications, 2018)
# pEC50, pIC50: −log10 of the molar value. “And” between values parts separate entries of the source, which are not always exact repeats. Equal values may be shown once.
# How the values were obtained:
# [1] = molecular target: T1, Mu Opioid (Homo sapiens, UniProt P35372); assay: Beta arrestin enzyme fragment complementation assay, mu opioid; assay type: cell-based; conditions: for pEC50: read-out: Mu Opioid, Agonist EC50; for pIC50: vs EC80 of agonist, read-out: Mu Opioid, Antagonist IC50
# T1 construct: expressed in transfected cells
# T1 sequence (P35372 whole entry, the tested form may be a part): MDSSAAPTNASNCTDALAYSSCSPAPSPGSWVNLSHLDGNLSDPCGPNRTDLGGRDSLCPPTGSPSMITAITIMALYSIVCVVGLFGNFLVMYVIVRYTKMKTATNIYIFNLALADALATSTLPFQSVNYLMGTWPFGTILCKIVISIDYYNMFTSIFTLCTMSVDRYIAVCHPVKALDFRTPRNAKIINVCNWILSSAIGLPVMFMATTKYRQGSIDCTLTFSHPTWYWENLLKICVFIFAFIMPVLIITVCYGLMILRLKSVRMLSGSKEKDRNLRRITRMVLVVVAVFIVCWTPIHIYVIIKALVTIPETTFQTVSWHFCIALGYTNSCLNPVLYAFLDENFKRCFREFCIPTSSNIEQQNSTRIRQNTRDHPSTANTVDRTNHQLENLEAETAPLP
# Protocol: Recruitment of β-arrestin to the GPCR, results in a functional enzyme that generates a chemiluminescent signal when substrate is added. Cells were plated at 5000 cells per well (40 µl per well) in black walled clear bottomed 384-well plates 24 h prior to running the assay. Medium was removed from the plates. For agonist studies 15 µl of HBSS/HEPES containing compound was added to the cells and the plate was incubated at room temperature for 90 min. For antagonist studies 15 µl of HBSS/HEPES containing compound was added to the cells and was incubated for 15 min prior to the addition of 15 µl of an EC80 concentration of agonist. The plate was subsequently incubated at room temperature for 90 min. Both assays were terminated by addition of 15 µl of a Beta-Glo® solution (Promega). Following an additional 30 min incubation the luminescence of each well was measured to determine the level of receptor activation.
# (§1) In vitro data analysis: Agonist/antagonist curves were plotted from individual experiments, and EC50/IC50 values were determined using a four parameter logistic fit.
# [2] = molecular target: T2, Histamine 1 (Homo sapiens, UniProt P35367); assay: FLIPR calcium assay, histamine 1; assay type: cell-based; conditions: for pEC50: read-out: Histamine 1, Agonist EC50; for pIC50: vs EC80 of agonist, read-out: Histamine 1, Antagonist IC50
# T2 construct: expressed in transfected cells
# T2 sequence (P35367 whole entry): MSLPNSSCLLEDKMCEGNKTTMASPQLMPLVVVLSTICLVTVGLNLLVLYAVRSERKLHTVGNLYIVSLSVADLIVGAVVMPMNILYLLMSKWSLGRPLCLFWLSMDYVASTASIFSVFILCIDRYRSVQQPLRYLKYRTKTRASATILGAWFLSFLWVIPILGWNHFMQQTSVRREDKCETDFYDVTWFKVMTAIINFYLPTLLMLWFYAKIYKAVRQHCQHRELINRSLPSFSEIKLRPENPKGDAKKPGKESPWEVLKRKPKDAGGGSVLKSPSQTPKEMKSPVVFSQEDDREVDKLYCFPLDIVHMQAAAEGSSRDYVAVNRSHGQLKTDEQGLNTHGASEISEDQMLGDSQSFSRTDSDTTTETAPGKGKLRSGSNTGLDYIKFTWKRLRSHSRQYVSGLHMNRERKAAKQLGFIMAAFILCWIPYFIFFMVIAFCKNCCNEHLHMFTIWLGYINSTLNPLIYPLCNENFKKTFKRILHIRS
# Protocol: (§2) Activation of the receptor by an agonist in this assay system results in an increase in intracellular calcium levels which is measured using a calcium specific dye. Cells were plated at 7500 cells per well (50 µl per well) in black walled clear bottomed 384-well plates 24 h prior to running the assay. […] Compound solution (10 µl) was added to each well by the FLIPR Tetra® instrument to measure agonist activity of the compound by measuring the change in fluorescence from baseline over a 60 s period (Ex […]). Subsequently 10 µl of agonist (EC80 value) was added to each well by the FLIPR Tetra® instrument to evaluate antagonist activity, with the change in fluorescence from baseline being measured over a 60 s period.
# as §1
# [3] = molecular target: T3, Adrenergic Alpha 1a (Homo sapiens, UniProt P35348); assay: FLIPR calcium assay, adrenergic alpha1a; assay type: cell-based; conditions: for pEC50: read-out: Adrenergic Alpha 1a, Agonist EC50; for pIC50: vs EC80 of agonist, read-out: Adrenergic Alpha 1a, Antagonist IC50
# T3 construct: expressed in transfected cells
# T3 sequence (P35348 1-466): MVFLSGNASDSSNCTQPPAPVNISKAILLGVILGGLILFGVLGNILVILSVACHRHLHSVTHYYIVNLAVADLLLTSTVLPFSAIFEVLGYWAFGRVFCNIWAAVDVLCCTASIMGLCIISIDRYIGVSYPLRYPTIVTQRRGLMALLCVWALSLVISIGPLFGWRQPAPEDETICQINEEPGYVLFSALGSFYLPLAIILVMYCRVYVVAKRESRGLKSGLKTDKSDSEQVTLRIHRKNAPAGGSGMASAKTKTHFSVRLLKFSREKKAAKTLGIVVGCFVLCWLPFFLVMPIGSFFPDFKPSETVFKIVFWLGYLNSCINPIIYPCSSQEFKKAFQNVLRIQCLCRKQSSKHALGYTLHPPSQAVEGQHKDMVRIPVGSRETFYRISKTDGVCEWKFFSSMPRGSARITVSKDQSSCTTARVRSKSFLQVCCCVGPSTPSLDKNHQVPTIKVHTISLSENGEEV
# Protocol: as §2, §1
# [4] = molecular target: T4, Dopamine Transporter (Homo sapiens, UniProt Q01959); assay: Amine transporter dye uptake assay, DAT; assay type: cell-based
# T4 construct: expressed in transfected cells
# T4 sequence (Q01959 whole entry): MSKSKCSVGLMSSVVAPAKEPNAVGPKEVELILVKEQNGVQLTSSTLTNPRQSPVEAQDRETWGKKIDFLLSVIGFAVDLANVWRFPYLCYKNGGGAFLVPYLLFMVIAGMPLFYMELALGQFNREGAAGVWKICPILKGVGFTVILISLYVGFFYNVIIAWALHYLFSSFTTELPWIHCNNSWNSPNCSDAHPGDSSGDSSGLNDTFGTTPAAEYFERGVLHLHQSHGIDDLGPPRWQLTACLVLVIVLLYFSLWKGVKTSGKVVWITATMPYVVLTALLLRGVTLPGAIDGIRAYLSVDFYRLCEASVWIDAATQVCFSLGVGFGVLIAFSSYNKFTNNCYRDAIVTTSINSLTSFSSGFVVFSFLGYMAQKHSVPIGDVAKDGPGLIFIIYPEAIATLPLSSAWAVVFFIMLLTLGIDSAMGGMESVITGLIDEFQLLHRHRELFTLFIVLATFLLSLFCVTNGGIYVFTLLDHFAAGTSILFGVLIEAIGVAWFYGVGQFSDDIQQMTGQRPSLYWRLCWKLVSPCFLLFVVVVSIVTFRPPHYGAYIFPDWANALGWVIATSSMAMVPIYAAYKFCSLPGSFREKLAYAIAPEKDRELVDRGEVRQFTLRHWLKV
# Protocol: (§3) HBSS/HEPES containing compound (5 µl) was added to the wells of black walled clear bottomed 384-well plate. Transporter dye (25 µl) (Molecular Devices; Cat # R8174) was added to each well. Finally 15,000 cells (20 µl) stably expressing the amine transporter of interest were added to each well and the plate is incubated at 37 °C for 30 min (DAT) or 60 min (NET and SERT). The plate is transferred to the FLIPR Tetra® instrument and the fluorescence of each well was measured (Ex […]). The level of fluorescence measured directly relates to the level of uptake of the dye labelled amine, with a reduction in levels being related to an inhibition of the respective transporter.
# as §1
# [5] = molecular target: T5, Serotonin Transporter (Homo sapiens, UniProt P31645); assay: Amine transporter dye uptake assay, SERT; assay type: cell-based; conditions: read-out: Serotonin Transporter, Inhibitor IC50
# T5 construct: expressed in transfected cells
# T5 sequence (P31645 whole entry): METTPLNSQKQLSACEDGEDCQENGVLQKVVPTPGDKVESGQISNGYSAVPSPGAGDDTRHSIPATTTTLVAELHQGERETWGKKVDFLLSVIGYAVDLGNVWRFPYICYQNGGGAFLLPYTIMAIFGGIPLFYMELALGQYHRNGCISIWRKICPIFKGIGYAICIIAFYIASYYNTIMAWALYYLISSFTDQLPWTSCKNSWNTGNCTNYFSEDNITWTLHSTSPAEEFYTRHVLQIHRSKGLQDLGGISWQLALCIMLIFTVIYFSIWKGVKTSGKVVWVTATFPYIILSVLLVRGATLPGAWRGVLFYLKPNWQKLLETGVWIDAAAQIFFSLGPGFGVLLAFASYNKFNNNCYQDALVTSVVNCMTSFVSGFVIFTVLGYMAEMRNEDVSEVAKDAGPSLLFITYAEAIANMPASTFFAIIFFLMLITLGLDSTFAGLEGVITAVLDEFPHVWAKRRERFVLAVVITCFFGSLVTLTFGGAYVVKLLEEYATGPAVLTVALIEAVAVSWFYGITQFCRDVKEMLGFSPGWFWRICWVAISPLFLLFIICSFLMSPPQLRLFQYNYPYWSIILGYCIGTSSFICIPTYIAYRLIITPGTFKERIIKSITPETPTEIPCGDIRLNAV
# Protocol: as §3, §1
# [6] = molecular target: Human PDE3A1 (Homo sapiens, UniProt Q14432); assay: PDE SPA assay, PDE3A1; assay type: biochemical
# Human PDE3A1, sequence (Q14432 whole entry): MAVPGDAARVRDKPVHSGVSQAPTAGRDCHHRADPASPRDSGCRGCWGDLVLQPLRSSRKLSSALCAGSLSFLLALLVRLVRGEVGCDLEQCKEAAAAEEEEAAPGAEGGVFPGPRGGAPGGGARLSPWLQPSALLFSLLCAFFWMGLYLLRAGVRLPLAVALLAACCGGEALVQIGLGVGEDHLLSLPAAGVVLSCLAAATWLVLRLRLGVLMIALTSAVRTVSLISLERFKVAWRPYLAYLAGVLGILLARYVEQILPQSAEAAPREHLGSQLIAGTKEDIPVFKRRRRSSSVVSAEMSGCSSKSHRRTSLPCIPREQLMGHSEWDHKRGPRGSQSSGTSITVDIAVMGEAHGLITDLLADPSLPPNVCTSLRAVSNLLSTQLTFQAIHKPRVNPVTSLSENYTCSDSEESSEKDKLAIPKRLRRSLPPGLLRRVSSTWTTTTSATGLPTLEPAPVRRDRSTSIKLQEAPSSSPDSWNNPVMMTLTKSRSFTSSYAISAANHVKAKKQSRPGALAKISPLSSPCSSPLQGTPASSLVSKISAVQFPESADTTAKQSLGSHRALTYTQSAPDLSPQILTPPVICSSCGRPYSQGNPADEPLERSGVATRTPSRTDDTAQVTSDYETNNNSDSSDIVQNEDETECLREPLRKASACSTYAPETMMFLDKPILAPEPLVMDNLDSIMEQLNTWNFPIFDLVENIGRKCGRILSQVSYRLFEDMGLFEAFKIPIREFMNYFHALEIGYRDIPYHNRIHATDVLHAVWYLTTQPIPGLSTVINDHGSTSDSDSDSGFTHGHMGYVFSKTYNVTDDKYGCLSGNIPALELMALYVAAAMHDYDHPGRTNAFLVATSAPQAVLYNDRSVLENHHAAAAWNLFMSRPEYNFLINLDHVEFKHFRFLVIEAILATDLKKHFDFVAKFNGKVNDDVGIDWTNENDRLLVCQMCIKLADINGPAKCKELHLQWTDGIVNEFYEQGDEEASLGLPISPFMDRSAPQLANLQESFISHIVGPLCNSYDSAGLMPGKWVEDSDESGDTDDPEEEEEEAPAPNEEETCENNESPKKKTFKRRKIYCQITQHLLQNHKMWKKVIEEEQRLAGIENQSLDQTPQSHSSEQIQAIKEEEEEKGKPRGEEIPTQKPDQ
# Protocol: PDE assays: The PDE assays measures the conversion of 3′, 5′-[^3H] cAMP to 5′-[^3H] AMP (for PDE 3A1 and 4D3) or 3′, 5′-[^3H] cGMP to 5′-[^3H] GMP (for PDE 5A1) by the relevant PDE enzyme subtype. Yttrium silicate (YSi) scintillation proximity (SPA) beads bind selectively to 5′-[^3H] AMP or 5′-[^3H] […] The assay was performed in white walled opaque bottom 384-well plates. One microliter of compound in dimethyl sulfoxide was added to each well. Enzyme solution was then added to each well in buffer (in mM: Trizma, 50 (pH7.5); MgCl2, 1.3 mM). […] The reaction was terminated by the addition of 20 µl of PDE YSi SPA beads (Perkin Elmer). Following an additional 8 h incubation period the plates were read on a MicroBeta radioactive plate counter (Perkin Elmer) to determine radioactive counts per well.
# as §1
# [7] = test system: human D1R T59A mutant; assay: cAMP assay, D1R mutant T59A; conditions: relative to wild-type D1R; each table line is one experiment (Experiment # 1-6)
# [8] = test system: human D1R S188T mutant; assay: cAMP assay, D1R mutant S188T; conditions: relative to wild-type D1R; each table line is one experiment (Experiment # 1-6)
# [9] = test system: human D1R V270A mutant; assay: cAMP assay, D1R mutant V270A; conditions: relative to wild-type D1R; each table line is one experiment (Experiment # 1-6)
# [10] = test system: human D1R T273A mutant; assay: cAMP assay, D1R mutant T273A; conditions: relative to wild-type D1R; each table line is one experiment (Experiment # 1-6)
# [11] = test system: human D1R F288A mutant; assay: cAMP assay, D1R mutant F288A; conditions: relative to wild-type D1R; each table line is one experiment (Experiment # 1-6)
Structure (SMILES),"fold shift of cAMP functional potency, S188T (EC50 mutant/ EC50 WT) [8]",pEC50 [1],pIC50 [1],pEC50 [2],pIC50 [2],pEC50 [3],pIC50 [3],pIC50 [4],pIC50 [5],pIC50 [6],"fold shift of cAMP functional potency, T59A (EC50 mutant/ EC50 WT) [7]","fold shift of cAMP functional potency, V270A (EC50 mutant/ EC50 WT) [9]","fold shift of cAMP functional potency, T273A (EC50 mutant/ EC50 WT) [10]","fold shift of cAMP functional potency, F288A (EC50 mutant/ EC50 WT) [11]"
Cc1cc(Oc2nccc3occc23)ccc1-c1c(C)cnnc1C [PF-1119],,< 5.00,< 5.00,< 5.00,< 5.00,< 5.00,< 5.00,< 5.00,< 5.00,5.04,,,,
Cc1cc(Oc2nccc3occc23)ccc1-c1c(C)ncc2nccn12 [PF-6142],1.3 and 1.7,< 5.00,5.06,< 5.00,5.34,< 5.00,5.04,< 5.00,< 5.00,5.29,1.0,1.7,0.2,141.2 and 88.7
Cc1cc(Oc2nccc3occc23)ccc1-n1c(C)nc2cnccc21 [PF-8294],,< 5.00,< 5.00,< 5.00,< 5.00,< 5.00,< 5.00,< 5.00,< 5.00,< 5.00,,,,

# The next lines start with results.
"fold shift of cAMP functional potency, S188T (EC50 mutant/ EC50 WT) [8]",Structure (SMILES),pEC50 [1],pIC50 [1],pEC50 [2],pIC50 [2],pEC50 [3],pIC50 [3],pIC50 [4],pIC50 [5],pIC50 [6],"fold shift of cAMP functional potency, T59A (EC50 mutant/ EC50 WT) [7]","fold shift of cAMP functional potency, V270A (EC50 mutant/ EC50 WT) [9]","fold shift of cAMP functional potency, T273A (EC50 mutant/ EC50 WT) [10]","fold shift of cAMP functional potency, F288A (EC50 mutant/ EC50 WT) [11]"
0.6 and 0.9,Cc1cc(Oc2cccc(O)c2O)ccc1-c1c(C)ncnc1C [PF-1437],,,,,,,,,,0.2,0.6,0.1,
1.8,Cc1cc(Oc2nccc3occc23)ccc1-c1c(C)ncnc1C [PF-8871],< 5.00,< 5.00,< 5.00,< 5.00,< 5.00,< 5.00,< 5.00,< 5.00,< 5.00,,,,146.3
